System: Bacteria mixture 2 (alkaliphilic bacteria of the Nesterenkonia & Alkalibacterium genus)
Test: Repetitive stress test of paints with bacteria mixture 2, semiquantitative evaluation (examples 4 and 5)
Format: cell-based
Set-up: key to Bacterial growth after inoculation: 0: No growth; Minimal growth, 1 to 10 colonies visible over the entire streak; 2: Light growth, maximum 100 colonies; Moderate growth, maximum 300 to 400 colonies; Uniform growth, >400 colonies, single colonies still clearly recognizable; 5: Heavy growth, too many colonies to count, but no growth over the entire streak; 6: Full growth, barely any single colonies still apparent, growth over the entire streak
Settings: Table 4
Text: Paints 1 to 3 were mixed and homogenized with various concentrations of the guanidinium salts to be tested.
The batches obtained of the paint thus prepared were inoculated repeatedly with a mixture of different wild-type bacterial strains that are of practical relevance with regard to contamination. These bacteria had previously been isolated from commercial emulsion paints containing conventional preservatives (bacteria mixture 1, Pseudomonas genus), which are microbially contaminated in practice, and commercial so-called preservative-free alkaline emulsion paints (bacteria mixture 2, alkaliphilic bacteria of the Nesterenkonia & Alkalibacterium genus), which are microbially contaminated in practice.
• Nesterenkonia sp. DSM 108520 • Nesterenkonia sp. DSM 108521 • Alkalibacterium pelagium DSM 108522 • Nesterenkonia massiliensis DSM 110679 • Nesterenkonia sp. DSM 108519
The inoculum was added to the respective sample in each inoculation at 2% (v/w) as a fresh cell suspension in a physiological saline solution (0.9% NaCl). The cell count of the added inoculum in example 1 was 10^5/ml, in examples 2 to 5 10^9/ml, and in example 6 10^6/ml, each in equal portions consisting of the individual bacterial strains. The cell suspension was produced by growing the individual bacteria at 30° C. for 24 h in liquid culture on a shaker. The medium used to grow the bacteria from bacteria mixture 1 was Müller-Hinton liquid medium. Bacteria from bacteria mixture 2 were grown in Müller-Hinton liquid medium that had been adjusted to pH 9.5-9.7 with an alkaline buffer solution beforehand. After growing, the individual liquid cultures were centrifuged, and the cells were resuspended in physiological saline solution. In order to adjust the mixture to the desired cell count, the individual bacteria suspensions, if necessary, were diluted accordingly before being combined with saline solution. The cell count of the inoculum was determined in each case by chamber counting.
In examples 2 to 6, what is called a repetitive stress test with bacteria was conducted by inoculating the samples at particular time intervals repeatedly with a bacteria suspension having a cell count of 10^9/ml (2% v/w) and monitoring the evolution of the bacteria by a semiquantitative evaluation method. After each inoculation, the samples were incubated at 30° C. for 6 days (bacteria mixture 1 and 3) or 7 and 14 days (bacteria mixture 2), and after these periods bacterial infestation was evaluated semiquantitatively in each case. For this purpose, an aliquot was taken from each sample after homogenization using a sterile plastic inoculation loop (10 μl) and streaked evenly on agar plates (bacteria mixture 1 and 3 on tryptic soy agar, bacteria mixture 2 on DSMZ 31 alkaline nutrient agar). The streaked agar plates were then incubated at 30° C. for 48 h (bacteria mixture 1 and 3) or 5 to 7 days (bacteria mixture 2). After incubation, the bacterial colonies grown on the agar plates were visually evaluated and quantified according to the following scheme:
A total of 3 inoculation cycles was performed in each repetitive stress test.
Inoculation 2% (w/v) with Bacteria Mixture 2, 10^9 CFU/ml

Q: `N=C(N)N.N=C(N)N.O=C(O)O` [guanidine carbonate] was tested. Which “Bacterial growth after inoculation” value (Paint 1, +0.1% guanidine carbonate (656 ppm guanidine), pH 9.1, 1. inoculation, 7 d) did it give?
A: The value was 0/0.

Q: What about the “Bacterial growth after inoculation” value (Paint 1, +0.1% guanidine carbonate (656 ppm guanidine), pH 9.1, 1. inoculation, 14 d) of the same compound?
A: Its value is 0/0.

Q: And the “Bacterial growth after inoculation” value (Paint 1, +0.1% guanidine carbonate (656 ppm guanidine), pH 9.1, 2. inoculation, 7 d)?
A: The value was 0/0.

Q: And the “Bacterial growth after inoculation” value (Paint 1, +0.1% guanidine carbonate (656 ppm guanidine), pH 9.1, 2. inoculation, 14 d)?
A: Its value is 0/0.

Q: And the “Bacterial growth after inoculation” value (Paint 1, +0.1% guanidine carbonate (656 ppm guanidine), pH 9.1, 3. inoculation, 7 d)?
A: The value was 6/6.

Q: And the “Bacterial growth after inoculation” value (Paint 1, +0.1% guanidine carbonate (656 ppm guanidine), pH 9.1, 3. inoculation, 14 d)?
A: Its value is 6/6.

Q: What about the “Bacterial growth after inoculation” value (Paint 1, +0.15% guanidine carbonate (984 ppm guanidine), pH 9.4, 1. inoculation, 7 d) of the same compound?
A: The value was 0/0.

Q: What about the “Bacterial growth after inoculation” value (Paint 1, +0.15% guanidine carbonate (984 ppm guanidine), pH 9.4, 1. inoculation, 14 d) of the same compound?
A: The value was 0/0.

Q: And the “Bacterial growth after inoculation” value (Paint 1, +0.15% guanidine carbonate (984 ppm guanidine), pH 9.4, 2. inoculation, 7 d)?
A: Its value is 0/0.

Q: And the “Bacterial growth after inoculation” value (Paint 1, +0.15% guanidine carbonate (984 ppm guanidine), pH 9.4, 2. inoculation, 14 d)?
A: The value was 0/0.

Q: What about the “Bacterial growth after inoculation” value (Paint 1, +0.15% guanidine carbonate (984 ppm guanidine), pH 9.4, 3. inoculation, 7 d) of the same compound?
A: Its value is 0/0.

Q: And the “Bacterial growth after inoculation” value (Paint 1, +0.15% guanidine carbonate (984 ppm guanidine), pH 9.4, 3. inoculation, 14 d)?
A: The value was 0/0.

Q: And the “Bacterial growth after inoculation” value (Paint 1, +0.2% guanidine carbonate (1312 ppm guanidine), pH 9.6, 1. inoculation, 7 d)?
A: The value was 0/0.

Q: And the “Bacterial growth after inoculation” value (Paint 1, +0.2% guanidine carbonate (1312 ppm guanidine), pH 9.6, 1. inoculation, 14 d)?
A: The value was 0/0.

Q: And the “Bacterial growth after inoculation” value (Paint 1, +0.2% guanidine carbonate (1312 ppm guanidine), pH 9.6, 2. inoculation, 7 d)?
A: The value was 0/0.

Q: And the “Bacterial growth after inoculation” value (Paint 1, +0.2% guanidine carbonate (1312 ppm guanidine), pH 9.6, 2. inoculation, 14 d)?
A: The value was 0/0.

Q: What about the “Bacterial growth after inoculation” value (Paint 1, +0.2% guanidine carbonate (1312 ppm guanidine), pH 9.6, 3. inoculation, 7 d) of the same compound?
A: Its value is 0/0.

Q: What about the “Bacterial growth after inoculation” value (Paint 1, +0.2% guanidine carbonate (1312 ppm guanidine), pH 9.6, 3. inoculation, 14 d) of the same compound?
A: The value was 0/0.

Q: And the “Bacterial growth after inoculation” value (Paint 1, +0.25% guanidine carbonate (1640 ppm guanidine), pH 9.7, 1. inoculation, 7 d)?
A: Its value is 0/0.

Q: What about the “Bacterial growth after inoculation” value (Paint 1, +0.25% guanidine carbonate (1640 ppm guanidine), pH 9.7, 1. inoculation, 14 d) of the same compound?
A: Its value is 0/0.

Q: And the “Bacterial growth after inoculation” value (Paint 1, +0.25% guanidine carbonate (1640 ppm guanidine), pH 9.7, 2. inoculation, 7 d)?
A: Its value is 0/0.

Q: What about the “Bacterial growth after inoculation” value (Paint 1, +0.25% guanidine carbonate (1640 ppm guanidine), pH 9.7, 2. inoculation, 14 d) of the same compound?
A: Its value is 0/0.

Q: What about the “Bacterial growth after inoculation” value (Paint 1, +0.25% guanidine carbonate (1640 ppm guanidine), pH 9.7, 3. inoculation, 7 d) of the same compound?
A: Its value is 0/0.

Q: And the “Bacterial growth after inoculation” value (Paint 1, +0.25% guanidine carbonate (1640 ppm guanidine), pH 9.7, 3. inoculation, 14 d)?
A: Its value is 0/0.

Q: And the “Bacterial growth after inoculation” value (Paint 1, +0.3% guanidine carbonate (1968 ppm guanidine), pH 9.7, 1. inoculation, 7 d)?
A: The value was 0/0.

Q: And the “Bacterial growth after inoculation” value (Paint 1, +0.3% guanidine carbonate (1968 ppm guanidine), pH 9.7, 1. inoculation, 14 d)?
A: The value was 0/0.

Q: What about the “Bacterial growth after inoculation” value (Paint 1, +0.3% guanidine carbonate (1968 ppm guanidine), pH 9.7, 2. inoculation, 7 d) of the same compound?
A: Its value is 0/0.

Q: And the “Bacterial growth after inoculation” value (Paint 1, +0.3% guanidine carbonate (1968 ppm guanidine), pH 9.7, 2. inoculation, 14 d)?
A: The value was 0/0.

Q: What about the “Bacterial growth after inoculation” value (Paint 1, +0.3% guanidine carbonate (1968 ppm guanidine), pH 9.7, 3. inoculation, 7 d) of the same compound?
A: Its value is 0/0.

Q: And the “Bacterial growth after inoculation” value (Paint 1, +0.3% guanidine carbonate (1968 ppm guanidine), pH 9.7, 3. inoculation, 14 d)?
A: Its value is 0/0.

Q: What about the “Bacterial growth after inoculation” value (Paint 1, +0.4% guanidine carbonate (2624 ppm guanidine), pH 9.9, 1. inoculation, 7 d) of the same compound?
A: Its value is 0/0.

Q: What about the “Bacterial growth after inoculation” value (Paint 1, +0.4% guanidine carbonate (2624 ppm guanidine), pH 9.9, 1. inoculation, 14 d) of the same compound?
A: The value was 0/0.

Q: And the “Bacterial growth after inoculation” value (Paint 1, +0.4% guanidine carbonate (2624 ppm guanidine), pH 9.9, 2. inoculation, 7 d)?
A: Its value is 0/0.

Q: What about the “Bacterial growth after inoculation” value (Paint 1, +0.4% guanidine carbonate (2624 ppm guanidine), pH 9.9, 2. inoculation, 14 d) of the same compound?
A: The value was 0/0.

Q: What about the “Bacterial growth after inoculation” value (Paint 1, +0.4% guanidine carbonate (2624 ppm guanidine), pH 9.9, 3. inoculation, 7 d) of the same compound?
A: The value was 0/0.

Q: What about the “Bacterial growth after inoculation” value (Paint 1, +0.4% guanidine carbonate (2624 ppm guanidine), pH 9.9, 3. inoculation, 14 d) of the same compound?
A: The value was 0/0.

Q: What about the “Bacterial growth after inoculation” value (Paint 1, +0.5% guanidine carbonate (3280 ppm guanidine), pH 10.1, 1. inoculation, 7 d) of the same compound?
A: Its value is 0/0.

Q: What about the “Bacterial growth after inoculation” value (Paint 1, +0.5% guanidine carbonate (3280 ppm guanidine), pH 10.1, 1. inoculation, 14 d) of the same compound?
A: Its value is 0/0.

Q: What about the “Bacterial growth after inoculation” value (Paint 1, +0.5% guanidine carbonate (3280 ppm guanidine), pH 10.1, 2. inoculation, 7 d) of the same compound?
A: The value was 0/0.

Q: What about the “Bacterial growth after inoculation” value (Paint 1, +0.5% guanidine carbonate (3280 ppm guanidine), pH 10.1, 2. inoculation, 14 d) of the same compound?
A: Its value is 0/0.

Q: What about the “Bacterial growth after inoculation” value (Paint 1, +0.5% guanidine carbonate (3280 ppm guanidine), pH 10.1, 3. inoculation, 7 d) of the same compound?
A: The value was 0/0.

Q: What about the “Bacterial growth after inoculation” value (Paint 1, +0.5% guanidine carbonate (3280 ppm guanidine), pH 10.1, 3. inoculation, 14 d) of the same compound?
A: The value was 0/0.

Q: And the “Bacterial growth after inoculation” value (Paint 1, +1.0% guanidine carbonate (6560 ppm guanidine), pH 10.4, 1. inoculation, 7 d)?
A: Its value is 0/0.

Q: And the “Bacterial growth after inoculation” value (Paint 1, +1.0% guanidine carbonate (6560 ppm guanidine), pH 10.4, 1. inoculation, 14 d)?
A: Its value is 0/0.

Q: What about the “Bacterial growth after inoculation” value (Paint 1, +1.0% guanidine carbonate (6560 ppm guanidine), pH 10.4, 2. inoculation, 7 d) of the same compound?
A: Its value is 0/0.

Q: And the “Bacterial growth after inoculation” value (Paint 1, +1.0% guanidine carbonate (6560 ppm guanidine), pH 10.4, 2. inoculation, 14 d)?
A: Its value is 0/0.

Q: And the “Bacterial growth after inoculation” value (Paint 1, +1.0% guanidine carbonate (6560 ppm guanidine), pH 10.4, 3. inoculation, 7 d)?
A: The value was 0/0.

Q: And the “Bacterial growth after inoculation” value (Paint 1, +1.0% guanidine carbonate (6560 ppm guanidine), pH 10.4, 3. inoculation, 14 d)?
A: Its value is 0/0.

Q: And the “Bacterial growth after inoculation” value (Paint 2, +0.1% guanidine carbonate (656 ppm guanidine), pH 8.9, 1. inoculation, 7 d)?
A: The value was 2 (Light growth, maximum 100 colonies).

Q: And the “Bacterial growth after inoculation” value (Paint 2, +0.1% guanidine carbonate (656 ppm guanidine), pH 8.9, 1. inoculation, 14 d)?
A: The value was 0.

Q: And the “Bacterial growth after inoculation” value (Paint 2, +0.1% guanidine carbonate (656 ppm guanidine), pH 8.9, 2. inoculation, 7 d)?
A: Its value is 6.
